US6106822A, “Hormone and growth factor phosphoglycokine mimetics from mycobacterium” (University College of London, priority 1995, dated 2000)

How the values were obtained:
[1] = infusion; normal rats given a glucose load or streptozotocin-treated rats; cited from earlier work
isolated adipocytes = assay: lipogenesis assay (incorporation of labelled glucose into lipids of isolated adipocytes); format: cell-based, rat; conditions: 10 μl of stock solution in final volume of 1.25 ml
Procedure: The activation of lipogenesis is monitored by measuring the incorporation of uniformly labelled glucose into lipids of isolated adipocytes as described by Rodbell in J. Biol. Chem. (1964) 239, 375-380.
For the lipogenesis assay, 10 μl of the stock solution is added to a final volume of 1.25 ml.

| Compound | activity of glycogen synthase I [1] | plasma glucose [1] | Lipogensis (% stimulation) (isolated adipocytes) [%] |
| --- | --- | --- | --- |
| OC1C(O)C(O)C(O)C(O)C1O (stereo not drawn) [chiro-inositol] | enhanced activity of glycogen synthase I | decreased plasma glucose | – |
| Insulin | – | – | 273 |
